From patent US20210052632A1, “SELECTIVE PARP1 INHIBITORS TO TREAT CANCER” (Cambridge Enterprise Limited, priority 2018, published 2021)
Like-named read-outs stand apart in the source and are kept apart here.

Tests used:
[1] = molecular target: T1, human full length active PARP2 (Homo sapiens, UniProt Q9UGN5); experiment: PARP inhibitor assay, fluorescence-based, PARP2; format: biochemical
T1 construct: human full length active PARP1 (CS207770, Merck), PARP2 (ab198766, Abeam); purchased Abcam ab198766
Excerpt: (§1) The PARP inhibitor assay is a direct fluorescence-based concentration measurement of reaction product formation. The assay reagents are sold as a commercial kit (see http://www.merckmillipore.com/GB/en/product/PARP1-Enzyme-Activity-Assay,MM_NF-17-10149). To measure PARP inhibition, the NAD+ substrate concentration should be set at Km (the Michaelis constant) to enable identifications of all types of inhibitors (competitive, uncompetitive and non-competitive (allosteric) (the latter represents a mode of action of Zn-finger inhibitors)), direct calculation of inhibitor potency (Ki) and in vivo modelling. (See in and literature sited therein: Michael G. Acker, Douglas S. Auld. Considerations for the design and reporting of enzyme assays in high-throughput screening applications. Perspectives in Science (2014) 1, 56-73).
(§2) PARP activity and inhibition was measured for human full length active PARP1 (CS207770, Merck), PARP2 (ab198766, Abeam) and PARP3 (ab79638, Abeam) proteins. Inhibitor compounds (Sodium Aurothiomalate and Aurothioglucose, Sigma-Aldrich and Auranofin, Bio-Techne) at different concentrations (1, 10 and 100 nM, 1, 10 and 100 μM final) were added to the reaction buffer, concocted as a 1:1 mixture of Merck kit buffer with 50 mM Tris-HCl, 100 mM NaCl, 5 mM MgCl2, 0.05% Tween-20, pH 8.0, Sigma), and incubated with PARP1 (2.5 ng/μL final), PARP2 (2.2 ng/μL final) or PARP3 (55 ng/μL final) at room temperature for 30 min.
(§3) Further, activated DNA (2 ng/μL final), […] (60 and 400 μM final for PARP1/2 and PARP3, respectively) and Nicotinamidase (200 ng/μL final) were added and incubated at 37° C. for 45 min. Total reaction volume was 25 μL.
(§4) Controls were executed as follows: • 1. Control of 0% inhibition contained reaction sample without inhibitor; • 2. Control of 100% inhibition of PARP1/2/3 activity contained reaction sample without β-NAD; and • 3. Control of 100% inhibition of DNA-dependent activity contained reaction sample without DNA.
(§5) After the plates were cooled down to room temperature, 25 μL of Merck proprietary reagent was added to the reaction mixture and incubated at mild shaking for 45 min. Fluorescence measurement was carried out at excitation wavelength of 410 nm and emission of 460 nm in Fluostar Omega microplate reader (BMG Labtech).
(§6) Total PARP1/2/3 activity was calculated as a difference between control (1) and control (2). DNA-independent activity was calculated as a difference between control (1) and control (3). DNA-dependent activity was calculated as the difference between the total PARP1/2/3 activity and DNA-independent activity. […] However, potentially up to 30% of PARP1 activity can be DNA-independent.
(§7) Inhibitory values were converted into percentages according to controls. Controls (1) and (3) were used in the case of PARP1, because only inhibition of DNA-dependent activity was observed, and the results are shown in FIG. 2. Controls (1) and (2) were used in the case of PARP2/3, because inhibition of total PARP2/3 activity (both DNA-dependent and DNA-independent reactions) was observed. FIGS. 3 and 4 show the percentage inhibition of PARP1 and PARP2 for different concentrations of aurothiomalate and aurothioglucose, respectively.

[2] = molecular target: T2, human full length active PARP1 (Homo sapiens, UniProt P09874); experiment: PARP inhibitor assay, fluorescence-based (PARP1 Enzyme Activity Assay kit), PARP1; format: biochemical
T2 construct: human full length active PARP1 (CS207770, Merck); purchased Merck CS207770
Excerpt: as §1, §2, §3, §4, §5, §6, §7

[3] = molecular target: T3, human full length active PARP3 (Homo sapiens, UniProt Q9Y6F1); experiment: PARP inhibitor assay, fluorescence-based, PARP3; format: biochemical; details: for IC50: inhibition of total PARP3 activity (controls 1 and 2), 400 μM β-NAD
T3 construct: human full length active PARP1 (CS207770, Merck), PARP2 (ab198766, Abeam) and PARP3 (ab79638, Abeam) proteins; purchased Abcam ab79638
T3 sequence (Q9Y6F1 1-533): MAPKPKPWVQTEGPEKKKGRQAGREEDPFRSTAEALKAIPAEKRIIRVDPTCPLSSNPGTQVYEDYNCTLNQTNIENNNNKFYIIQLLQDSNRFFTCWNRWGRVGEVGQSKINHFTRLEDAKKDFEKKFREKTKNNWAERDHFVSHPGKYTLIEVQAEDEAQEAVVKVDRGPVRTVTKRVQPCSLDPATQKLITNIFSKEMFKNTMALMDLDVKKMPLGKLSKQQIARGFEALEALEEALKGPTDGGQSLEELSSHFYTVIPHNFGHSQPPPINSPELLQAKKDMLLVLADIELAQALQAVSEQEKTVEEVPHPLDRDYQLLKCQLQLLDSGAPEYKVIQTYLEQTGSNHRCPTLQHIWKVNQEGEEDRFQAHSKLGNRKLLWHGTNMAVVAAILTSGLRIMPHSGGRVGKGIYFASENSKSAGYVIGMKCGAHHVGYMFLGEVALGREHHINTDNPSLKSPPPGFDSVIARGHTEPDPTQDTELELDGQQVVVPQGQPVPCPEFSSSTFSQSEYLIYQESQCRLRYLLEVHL
Excerpt: as §1, §2, §3, §4, §5, §6
Inhibitory values were converted into percentages according to controls. […]

[4] = tested on: rats fed a high adenine/low protein diet (chronic kidney disease); experiment: Bone density in rat model on high adenine/low protein diet (CKD), SEM/TEM of long limb bone cross sections; format: in vivo; details: 50 mg/kg/day for 6 weeks; cortical area of long limb bone cross section; vs control and untreated CKD-diet rats; FIG. 8b
Procedure: The effects of minocycline on bone calcification processes were evaluated in an in vivo rat model. The rats were fed a high adenine/low protein diet in order to develop chronic kidney disease (CKD) and associated hyperphosphatemia and medial vascular calcification. It is also expected to cause increased rates of bone turnover, allowing the inventors to examine whether inhibition of PARP2 enzymatic activity during bone remodelling affected mineralization. 14 of the rats on the high adenine/low protein diet were treated with 50 mg/kg/day of minocycline for 6 weeks. At the end of the study period cross sections of the long limb bone were analysed using scanning electron microscopy (SEM) and transmission electron microscopy (TEM), see FIG. 7, and the area fraction of solid bone in the cortical area of the bone cross section was quantified from these images, see FIG. 8. Statistical significance was determined by Mann-Whitney test.

[5] = inhibition of total PARP2 activity (controls 1 and 2), 60 μM β-NAD, read-out: IC50 PARP2
[6] = inhibition of DNA-dependent activity (controls 1 and 3), 60 μM β-NAD, activated DNA, read-out: IC50 PARP1

T2 sequence (P09874 whole entry): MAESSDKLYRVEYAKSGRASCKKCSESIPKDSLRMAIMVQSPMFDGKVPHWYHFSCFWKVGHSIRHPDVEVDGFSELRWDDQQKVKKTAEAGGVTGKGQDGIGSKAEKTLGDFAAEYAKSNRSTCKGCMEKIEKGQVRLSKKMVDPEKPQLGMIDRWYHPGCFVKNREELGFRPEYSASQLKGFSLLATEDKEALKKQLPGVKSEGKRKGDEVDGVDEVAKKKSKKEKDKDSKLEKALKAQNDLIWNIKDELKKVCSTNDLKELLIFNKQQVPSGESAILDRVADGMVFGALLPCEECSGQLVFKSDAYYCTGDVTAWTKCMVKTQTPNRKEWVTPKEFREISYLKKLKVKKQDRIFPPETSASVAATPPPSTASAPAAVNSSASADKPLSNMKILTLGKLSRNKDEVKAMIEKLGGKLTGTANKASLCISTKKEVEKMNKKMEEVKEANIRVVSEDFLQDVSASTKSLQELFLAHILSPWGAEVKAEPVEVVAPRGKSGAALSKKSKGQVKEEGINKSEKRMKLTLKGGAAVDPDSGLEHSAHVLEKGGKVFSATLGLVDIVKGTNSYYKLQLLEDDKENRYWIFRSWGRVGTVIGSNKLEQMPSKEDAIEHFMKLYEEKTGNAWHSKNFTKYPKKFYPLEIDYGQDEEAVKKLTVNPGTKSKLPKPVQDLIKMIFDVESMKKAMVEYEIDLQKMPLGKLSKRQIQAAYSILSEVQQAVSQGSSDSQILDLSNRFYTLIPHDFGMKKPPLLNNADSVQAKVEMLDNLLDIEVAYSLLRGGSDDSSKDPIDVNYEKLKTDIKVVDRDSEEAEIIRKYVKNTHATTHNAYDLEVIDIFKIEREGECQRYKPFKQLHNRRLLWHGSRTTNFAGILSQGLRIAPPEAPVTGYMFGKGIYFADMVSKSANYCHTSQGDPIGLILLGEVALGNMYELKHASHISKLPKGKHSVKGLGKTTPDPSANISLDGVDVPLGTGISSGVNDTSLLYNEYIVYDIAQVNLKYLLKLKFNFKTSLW
T1 sequence (Q9UGN5 whole entry): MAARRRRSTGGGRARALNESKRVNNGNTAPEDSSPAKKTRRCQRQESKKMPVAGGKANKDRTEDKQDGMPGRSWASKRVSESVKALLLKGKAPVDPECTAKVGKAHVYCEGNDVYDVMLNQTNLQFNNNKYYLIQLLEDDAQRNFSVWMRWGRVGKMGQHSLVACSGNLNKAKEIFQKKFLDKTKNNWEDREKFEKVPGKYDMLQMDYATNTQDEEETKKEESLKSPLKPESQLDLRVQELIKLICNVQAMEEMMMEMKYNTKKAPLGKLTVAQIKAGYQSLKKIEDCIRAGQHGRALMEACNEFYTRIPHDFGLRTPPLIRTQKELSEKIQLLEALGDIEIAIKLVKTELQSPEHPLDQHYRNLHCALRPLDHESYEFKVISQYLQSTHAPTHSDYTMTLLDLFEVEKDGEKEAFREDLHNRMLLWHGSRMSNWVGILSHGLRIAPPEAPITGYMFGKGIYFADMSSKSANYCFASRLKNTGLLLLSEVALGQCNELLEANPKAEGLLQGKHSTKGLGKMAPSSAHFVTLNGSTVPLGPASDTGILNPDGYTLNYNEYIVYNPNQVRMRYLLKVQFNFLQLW

Compound	PARP2 inhibition (in words) [1]	IC50 [1, 5] [nM]	PARP1 inhibition (in words) ([2]; FIG. 2 and Table 1)	IC50 [2, 6] [nM]	PARP3 inhibition (in words) [3]	IC50 [3] [nM]	DNA-independent PARP1 activity in the presence of the compound [2]	IC50 [2] [nM]	reduction in the area fraction of solid bone [4] [%]	IC50 [1] [nM]	PARP2 vs PARP1 selectivity factor ([1]; ratio of PARP1 and PARP2 IC50)	IC50 ([2]; assay of Example 1, FIG. 6, read-out: IC50 PARP1) [nM]
CC(=O)OC[C@H]1O[C@@H]([S-])[C@H](OC(C)=O)[C@@H](OC(C)=O)[C@@H]1OC(C)=O.CCP(CC)CC.[Au+] [Auranofin]	only inhibits PARP1 and PARP2 at very high concentrations	1160 ± 81	only inhibits PARP1 and PARP2 at very high concentrations	1400 ± 98								
OC[C@H]1OC([S][Au])[C@H](O)[C@@H](O)[C@@H]1O (some centres unmarked) [Aurothioglucose]	not inhibited	4450 ± 623			not inhibited	1140 ± 20	maintained	120 ± 7				
CN(C)c1ccc(O)c2c1C[C@H]1C[C@H]3[C@H](N(C)C)C(O)=C(C(N)=O)C(=O)[C@@]3(O)C(O)=C1C2=O [minocycline]									25	2800	greater than 70 ×	204000
Sodium Aurothiomalate	not inhibited	1190 ± 190		48 ± 7	not inhibited	1160 ± 93	maintained					
